Source: article PMC11465415, “Characterization of conformational states of the homodimeric enzyme fluoroacetate dehalogenase by ^19F–^13C two-dimensional NMR” (RSC Chemical Biology, 2024)

Target: T1, fluoroacetate dehalogenase (FAcD) (Rhodopseudomonas palustris, UniProt Q6NAM1)
T1 construct: gene RPA1163; 300-residue homodimer expressed in E. coli BL21; all Trp replaced biosynthetically by 5-fluoro-(phenyl-13C6)-L-tryptophan; 9 Trp per protomer
Experiment: […]-13C TROSY HSQC and 1D […] NMR
Type: binding
Details: 50 °C; enzyme saturated with bromoacetate; 5-fluorotryptophan-labelled enzyme; active site; unreacted substrate analogue

T1 sequence (Q6NAM1 whole entry): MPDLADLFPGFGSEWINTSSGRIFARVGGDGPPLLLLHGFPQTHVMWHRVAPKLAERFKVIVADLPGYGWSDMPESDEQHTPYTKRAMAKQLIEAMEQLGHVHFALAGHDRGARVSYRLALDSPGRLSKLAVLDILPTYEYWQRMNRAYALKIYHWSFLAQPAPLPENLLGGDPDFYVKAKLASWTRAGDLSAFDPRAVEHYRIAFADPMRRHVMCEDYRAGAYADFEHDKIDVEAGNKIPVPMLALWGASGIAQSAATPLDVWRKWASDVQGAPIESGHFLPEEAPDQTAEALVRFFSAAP

**Q.** With O=C(O)CBr [bromoacetate] as the molecule, how does the “19F-13C TROSY HSQC and 1D 19F NMR” value read?
**A.** The addition of BrAc is also observed to result in a pronounced shift for W185
